Experimental data: US7781486B2, “Punctual stimulation therapy” (priority 2003, dated 2010)

System: pain (VAS scale) in patients
Assay: Punctual stimulation on both ears with simultaneous intravenous infusion of D-phenylalanine solution; pain reduction in patient case reports
Assay type: in vivo, human
Description: Very good relief of existing pain can be achieved by means of punctual stimulation, in which electrical current is supplied by way of needle electrodes stuck into the skin, whereby these needle electrodes are placed, in particular, at specifically sensitive points of an outer ear, in the case of the predominant number of patients treated with such stimulation.
On each of three consecutive days, punctual stimulation on both ears, with simultaneous intravenous infusion of a substance that inhibits the enzymatic decomposition of endogenous opioid neuropeptides, was carried out. Afterwards, punctual stimulation was carried out without infusion for the four subsequent days, by means of a small device worn by the patient, to supply power to needle electrodes that are stuck into the skin on one ear. This sequence was repeated several times, in coordination with the patient's need for pain reduction. In the case of punctual stimulations carried out with simultaneous infusion, electrical current was supplied to needle electrodes that were stuck into sensitive points of both ears. A sterile aqueous solution containing 20 g/L D-phenylalanine was administered as the infusion, whereby a total amount of D-phenylalanine of 200 to 300 mg/kilogram of body weight was administered during every treatment procedure. On the first days of the three-day sequences, in each instance, the infusion was started at least 10 min before the punctual stimulation. The flow velocity of the infusion was selected in accordance with an infusion period of 2.5 to 5 h.
Admission to clinic. Punctual stimulation carried out without infusion, by means of power supply to needle electrodes that are stuck into one ear, over a period of four days. Pain reduction achieved in this manner. Subsequently, punctual stimulation by means of power supply to needle electrodes that are stuck in both ears, and simultaneous intravenous infusion of an aqueous solution containing 15 g/L D-phenylalanine, in an amount of 250 mg/kg of body weight. An anti-emetic was also added to the solution. Duration of infusion about 3 h. During the course of this treatment, pain reduction all the way to freedom from pain (VAS-0). After 8 days, discharge from the clinic—free of symptoms, no vomiting, no nausea, no medication. At discharge, application of a device for punctual stimulation on one ear, without infusion, as mentioned above, for four days. Freedom from symptoms remains maintained during this stimulation period. On the following days, slight pain in the abdominal region, in individual instances. Three days after completion of the prior stimulation, again application of a device for a stimulation lasting four days—immediately clear relief. After this stimulation, again increase in pain, but tolerable without medication. After another three days, again application of such a device—free of symptoms. After removal of the device, again slight increase in pain, whereby the number of pain attacks and their intensity has decreased in comparison with previously. After several days, again a device applied for stimulation on one ear, lasting for four days—free of symptoms. After removal of the device, slow increase in pain to VAS-3-4. Ten days after removal of the device, again punctual stimulation on two ears, with intravenous infusion, as explained above. Pain reduction to VAS-0. […] Subsequently slow increase in pain up to maximum VAS-4. Two weeks after punctual stimulation on both ears, again application of a device for four days of stimulation on one ear without infusion—free of symptoms during stimulation. Another two weeks later, again application of such a device—free of symptoms during stimulation. Afterwards, more severe pain again in paraumbilical region, in individual instances. Again, application of a device as mentioned—free from symptoms during the stimulation. Later, sudden increase in pain. Therefore one week later, again punctual stimulation on both ears, with infusion. VAS-0. […]

dulling of sensory system (after first treatment, 20 g/L, 300 mg/kg i.v.): without dulling of the sensory system
SMILES: N[C@H](Cc1ccccc1)C(=O)O [D-phenylalanine]
duration of complete freedom from pain after treatment (after second treatment with infusion): 48 h | maximum pain (VAS) on slow increase after treatment (after the 48 h following second treatment with infusion): ≤ 4 VAS | pain (VAS) on increase after the pain-free period (after three pain-free days): 4 VAS | pain after treatment (ankle pain VAS-10, back pain, first treatment: 15 g/L, 250 mg/kg i.v., 3 h, stimulation on both ears): complete freedom from pain | pain reduction during each treatment procedure (carcinoma with generalized metastases, 20 g/L D-phenylalanine i.v., 200 to 300 mg/kg, infusion 2.5 to 5 h, with punctual stimulation on both ears, three consecutive days): pain reduction, which went all the way to freedom from pain | pain (VAS) during treatment (lumbar ischialgia, from VAS 9.5, 20 g/L, 300 mg/kg i.v., 3 h, stimulation on both ears): 0 VAS | pain after treatment (second treatment on both ears with infusion): Complete freedom from pain | pain after treatment (second treatment with infusion, from VAS-6): complete freedom from pain achieved
